IC90 data for 18 compounds are collected here from patent US12655126B2, “Imidazole-pyrazole derivatives as antibacterials” (Hoffmann-La Roche Inc., priority 2020, dated 2026).

Structures can show the parent of a compound that is named as a salt.

One experiment relates to Acinetobacter baumannii ATCC17961. The experiment in a line: Antimicrobial susceptibility testing: 90% growth inhibitory concentration (IC90) determination. The format is cell-based. Particulars: Acinetobacter baumannii ATCC17961; Iso-Sensitest broth; growth by OD 600 nm over 16 h; 90% growth inhibitory concentration; read-out: ATCC 17961 IC90. The protocol: Antimicrobial Susceptibility Testing:
90% Growth Inhibitory Concentration (IC90) Determination
The in vitro antimicrobial activity of the compounds was determined according to the following procedure:
The assay used a 10-points Iso-Sensitest broth medium to measure quantitatively the in vitro activity of the compounds against Acinetobacter baumannii ATCC17961.
Stock compounds in DMSO were serially twofold diluted (e.g. range from 50 to 0.097 μM final concentration) in 384 wells microtiter plates and inoculated with 49 μl the bacterial suspension in Iso-Sensitest medium to have a final cell concentration of ˜5×10^(5) CFU/ml in a final volume/well of 50 ul/well. Microtiter plates were incubated at 35±2° C.
Bacterial cell growth was determined with the measurement of optical density at λ=600 nm each minutes over a time course of 16 h. Growth inhibition was calculated during the logarithmic growth of the bacterial cells with determination of the concentration inhibiting 50% (IC50) and 90% (IC90) of the growth.
Table 1 provides the 90% growth inhibitory concentrations (IC90) in micromoles per liter of the compounds of present invention obtained against the strain Acinetobacter baumannii ATCC17961.
With `Cc1ccc(-n2cc(-c3cnc(C(=O)Nc4ccc(C(=O)N5CCN(C(=O)C6CC[N+](C)(C)CC6)CC5)c(Cl)c4)n3C)c(C(F)(F)F)n2)nc1` [Example A4, N-[3-chloro-4-[4-(1,1-dimethylpiperidin-1-ium-4-carbonyl)piperazine-1-carbonyl]phenyl]-1-methyl-5-[1-(5-methyl-2-pyridyl)-3-(trifluoromethyl)pyrazol-4-yl]imidazole-2-carboxamide; formate], the concentration for an effect of 90% (IC90) (as a rule, the point of the concentration-response curve where the effect stands at 90%) was found to be 250 nM.
For the compound `Cn1c(-c2cn(-c3ccc(N)cn3)nc2C(F)(F)F)cnc1C(=O)Nc1ccc(C(=O)N2CCN(C(=O)[C@@H]3CC[N+](C)(C)C[C@H]3O)CC2)c(Cl)c1` (stereo in doubt) [Example D6, 5-[1-(5-amino-2-pyridyl)-3-(trifluoromethyl)pyrazol-4-yl]-N-[3-chloro-4-[4-[(3S,4R)-3-hydroxy-1,1-dimethyl-piperidin-1-ium-4-carbonyl]piperazine-1-carbonyl]phenyl]-1-methyl-imidazole-2-carboxamide; formate], the 90% effect concentration (IC90) was determined as 370 nM.
Still for that read-out and setting: as for `Cc1c[nH]nc1-n1cc(-c2cnc(C(=O)Nc3ccc(C(=O)N4CCN(C(=O)C5CC[N+](C)(C)CC5)CC4)c(Cl)c3)n2C)c(C(F)(F)F)n1` [Example K2, N-[3-chloro-4-[4-(1,1-dimethylpiperidin-1-ium-4-carbonyl)piperazine-1-carbonyl]phenyl]-1-methyl-5-[1-(4-methyl-1H-pyrazol-3-yl)-3-(trifluoromethyl)pyrazol-4-yl]imidazole-2-carboxamide; 2,2,2-trifluoroacetate], the figure is 4360 nM; as for `Cn1c(-c2cn(-c3ccc(N)cn3)nc2C(F)(F)F)cnc1C(=O)Nc1ccc(C(=O)N2CCN(C(=O)[C@H]3CC[N+](C)(C)C[C@@H]3O)CC2)c(Cl)c1` (stereo in doubt) [Example D8, 5-[1-(5-amino-2-pyridyl)-3-(trifluoromethyl)pyrazol-4-yl]-N-[3-chloro-4-[4-[(3R,4S)-3-hydroxy-1,1-dimethyl-piperidin-1-ium-4-carbonyl]piperazine-1-carbonyl]phenyl]-1-methyl-imidazole-2-carboxamide; formate], 230 nM; as for `Cn1c(-c2cn(-c3ncccn3)nc2C(F)(F)F)cnc1C(=O)Nc1ccc(C(=O)N2CCN(C(=O)C3CC[N+](C)(C)CC3O)CC2)c(Cl)c1` (stereo not drawn) [Example B4, N-[3-chloro-4-[4-(3-hydroxy-1,1-dimethyl-piperidin-1-ium-4-carbonyl)piperazine-1-carbonyl]phenyl]-1-methyl-5-[1-pyrimidin-2-yl-3-(trifluoromethyl)pyrazol-4-yl]imidazole-2-carboxamide; formate], 1900 nM.
Still for that read-out and setting: the value for `CNC(=O)CCNc1ccc(-n2cc(-c3cnc(C(=O)Nc4ccc(C(=O)N5CCN(C(=O)C6CC[N+](C)(C)CC6)CC5)c(Cl)c4)n3C)c(C(F)(F)F)n2)nc1` [Example L2, N-[3-chloro-4-[4-(1,1-dimethylpiperidin-1-ium-4-carbonyl)piperazine-1-carbonyl]phenyl]-5-[1-[5-[[3-keto-3-(methylamino)propyl]amino]-2-pyridyl]-3-(trifluoromethyl)pyrazol-4-yl]-1-methyl-imidazole-2-carboxamide] was 330 nM; that for `Cn1c(-c2cn(-c3ccc(N)cn3)nc2C(F)F)cnc1C(=O)Nc1ccc(C(=O)N2CCN(C(=O)C3CC[N+](C)(C)CC3)CC2)c(Cl)c1` [Example A5, 5-[1-(5-amino-2-pyridyl)-3-(difluoromethyl)pyrazol-4-yl]-N-[3-chloro-4-[4-(1,1-dimethylpiperidin-1-ium-4-carbonyl)piperazine-1-carbonyl]phenyl]-1-methyl-imidazole-2-carboxamide; 2,2,2-trifluoroacetate] was 760 nM.
Same read-out and setting: as for `Cn1c(-c2cn(-c3ncccn3)nc2C(F)(F)F)cnc1C(=O)Nc1ccc(C(=O)N2CCN(C(=O)C3CC[N+](C)(CC(N)=O)CC3)CC2)c(Cl)c1` (stereo not drawn) [Example C2, N-[4-[4-[1-(2-amino-2-oxo-ethyl)-1-methyl-piperidin-1-ium-4-carbonyl]piperazine-1-carbonyl]-3-chloro-phenyl]-1-methyl-5-[1-pyrimidin-2-yl-3-(trifluoromethyl)pyrazol-4-yl]imidazole-2-carboxamide; formate], the figure is 1100 nM; as for `COCCNc1ccc(-n2cc(-c3cnc(C(=O)Nc4ccc(C(=O)N5CCN(C(=O)C6CC[N+](C)(C)CC6)CC5)c(Cl)c4)n3C)c(C(F)(F)F)n2)nc1` [Example E2, N-[3-chloro-4-[4-(1,1-dimethylpiperidin-1-ium-4-carbonyl)piperazine-1-carbonyl]phenyl]-5-[1-[5-(2-methoxyethylamino)-2-pyridyl]-3-(trifluoromethyl)pyrazol-4-yl]-1-methyl-imidazole-2-carboxamide; formate], 300 nM.
For the compound `CNc1ccc(-n2cc(-c3cnc(C(=O)Nc4ccc(C(=O)N5CCN(C(=O)[C@@H]6[C@@H](O)CC[N+]6(C)C)CC5)c(Cl)c4)n3C)c(C(F)(F)F)n2)nc1` [Example E6, N-[3-chloro-4-[4-[(2S,3S)-3-hydroxy-1,1-dimethyl-pyrrolidin-1-ium-2-carbonyl]piperazine-1-carbonyl]phenyl]-1-methyl-5-[1-[5-(methylamino)-2-pyridyl]-3-(trifluoromethyl)pyrazol-4-yl]imidazole-2-carboxamide; formate], the 90% effect concentration (IC90) turned out to be 370 nM.
Still for that read-out and setting: the value for `Cn1c(-c2cn(-c3cnc(N)cn3)nc2C(F)(F)F)cnc1C(=O)Nc1ccc(C(=O)N2CCN(C(=O)C3CC[N+](C)(C)CC3)CC2)c(Cl)c1` [Example D16, 5-[1-(5-aminopyrazin-2-yl)-3-(trifluoromethyl)pyrazol-4-yl]-N-[3-chloro-4-[4-(1,1-dimethylpiperidin-1-ium-4-carbonyl)piperazine-1-carbonyl]phenyl]-1-methyl-imidazole-2-carboxamide] was 320 nM; that for `Cn1c(-c2cn(-c3cc(Cl)c(N)cn3)nc2C(F)(F)F)cnc1C(=O)Nc1ccc(C(=O)N2CCN(C(=O)C3CC[N+](C)(C)CC3)CC2)c(Cl)c1` [Example A12, 5-[1-(5-amino-4-chloro-2-pyridyl)-3-(trifluoromethyl)pyrazol-4-yl]-N-[3-chloro-4-[4-(1,1-dimethylpiperidin-1-ium-4-carbonyl)piperazine-1-carbonyl]phenyl]-1-methyl-imidazole-2-carboxamide] was 270 nM.
For the compound `Cn1c(-c2cn(-c3ccc(N)cn3)nc2C(F)(F)F)cnc1C(=O)Nc1ccc(C(=O)N[C@H]2[C@@H]3CN(C(=O)[C@@H]4C[C@@H](O)C[N+]4(C)C)C[C@@H]32)c(Cl)c1` [Example D17, 5-[1-(5-amino-2-pyridyl)-3-(trifluoromethyl)pyrazol-4-yl]-N-[3-chloro-4-[[(exo)-3-[(2S,4R)-4-hydroxy-1,1-dimethyl-pyrrolidin-1-ium-2-carbonyl]-3-azabicyclo[3.1.0]hexan-6-yl]carbamoyl]phenyl]-1-methyl-imidazole-2-carboxamide], the IC90 came to 300 nM.
On the same count and under the same terms, the value for `Cn1c(-c2cn(-c3ccc(N)c(F)n3)nc2C(F)(F)F)cnc1C(=O)Nc1ccc(C(=O)N2CCN(C(=O)C3CC[N+](C)(C)CC3)CC2)c(Cl)c1` [Example A10, 5-[1-(5-amino-6-fluoro-2-pyridyl)-3-(trifluoromethyl)pyrazol-4-yl]-N-[3-chloro-4-[4-(1,1-dimethylpiperidin-1-ium-4-carbonyl)piperazine-1-carbonyl]phenyl]-1-methyl-imidazole-2-carboxamide] was 510 nM.

Still in this experiment, the particulars now being: Acinetobacter baumannii, ATCC17961, 16 h, read-out: ATCC 17961 IC90.
With `Cn1c(-c2cn(-c3ccc(N)cn3)nc2C(F)(F)F)cnc1C(=O)Nc1ccc(C(=O)N2CCN(C(=O)[C@@H]3C[C@@H](O)C[N+]3(C)C)CC2)c(Cl)c1` [Example D1, 5-[1-(5-Amino-2-pyridyl)-3-(trifluoromethyl)pyrazol-4-yl]-N-[3-chloro-4-[4-[(2S,4R)-4-hydroxy-1,1-dimethyl-pyrrolidin-1-ium-2-carbonyl]piperazine-1-carbonyl]phenyl]-1-methyl-imidazole-2-carboxamide; formate], the concentration for an effect of 90% (IC90) is 310 nM.
Same read-out and setting: the value for `COc1ccc(-n2cc(-c3cnc(C(=O)Nc4ccc(C(=O)N5CCN(C(=O)C6CC[N+](C)(C)CC6)CC5)c(Cl)c4)n3C)c(C(F)(F)F)n2)nc1` [Example A1, N-[3-Chloro-4-[4-(1,1-dimethylpiperidin-1-ium-4-carbonyl)piperazine-1-carbonyl]phenyl]-5-[1-(5-methoxy-2-pyridyl)-3-(trifluoromethyl)pyrazol-4-yl]-1-methyl-imidazole-2-carboxamide; formate] was 95 nM; that for `Cn1c(-c2cn(-c3ncccn3)nc2C(F)(F)F)cnc1C(=O)Nc1ccc(C(=O)N2CCN(C(=O)C[N+]3(C)CC[C@@H](O)C3)CC2)c(Cl)c1` (stereo partly drawn) [Example A6, N-[3-chloro-4-[4-[2-[(3R)-3-hydroxy-1-methyl-pyrrolidin-1-ium-1-yl]acetyl]piperazine-1-carbonyl]phenyl]-1-methyl-5-[1-pyrimidin-2-yl-3-(trifluoromethyl)pyrazol-4-yl]imidazole-2-carboxamide; formate] was 1300 nM; that for `Cn1c(-c2cn(-c3ccc(NCCN)cn3)nc2C(F)(F)F)cnc1C(=O)Nc1ccc(C(=O)N2CCN(C(=O)C3CC[N+](C)(C)CC3)CC2)c(Cl)c1` [Example M1, 5-[1-[5-(2-aminoethylamino)-2-pyridyl]-3-(trifluoromethyl)pyrazol-4-yl]-N-[3-chloro-4-[4-(1,1-dimethylpiperidin-1-ium-4-carbonyl)piperazine-1-carbonyl]phenyl]-1-methyl-imidazole-2-carboxamide; 2,2,2-trifluoroacetic acid; 2,2,2-trifluoroacetate] was 100 nM.
